Results reported in patent publication US7947854B2, “Bis-cationic compounds and use thereof” (The University of Sydney, priority 2003, dated 2011).
Read-outs that look alike come from different tables or passages of the source. Marks after values point to notes of the source that are not given here.

Experiments:
[1] = system: secreted phospholipase B (LPL/LPTA activities); experiment: Radiometric assay, secreted LPL and LPTA activities (Lyso assay); assay type: biochemical, Cryptococcus neoformans H99; conditions: for % Inhibition LPL, Secretory Enzyme / % Inhibition LPTA, Secretory Enzyme: pH 4
Procedure, shortened: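 Cell-free supernatant from C. neoformans H99 (incubated 24 h at 37° C in imidazole buffer, pH 5.5) with 1 μg total protein and 200 μM lyso-PC incl. 1-[^14C]palmitoyl lyso-PC, 15 s reaction. LPL from substrate loss, LPTA from radiolabelled PC formed, after extraction and TLC; inhibitors tested at 25 and 250 μM, then 2.5 and 0.25 μM, inhibition vs inhibitor-free control, triplicate.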

[2] = system: T. mentagrophytes; experiment: Susceptibility of dermatophytes, broth microdilution NCCLS M38-P; assay type: cell-based; conditions: 100% growth inhibition, 28° C.; for MIC: Trichophyton mentagrophytes
Procedure: Isolates were tested using the method described in the National Committee for Clinical Laboratory Standards (NCCLS) document M38-P for filamentous fungi, with dermatophyte specific modifications described by Fernández-Torres et al, Current topics in Medical Mycology, 14-19 Feb. 1999.
Five dermatophyte isolates were, namely; T. rubrum, T. mentagrophytes, T. tonsurans, M. canis and M. gypseum, all of which produce lipases and some, phospholipase. These isolates were tested by the broth microdilution method according to NCCLS document M38-P, for activity against selected antifungal agents. In addition, ten randomly selected isolates of T. tonsurans were also tested. All isolates were maintained on SDA at 28° C. Candida parapsilosis (ATCC 20019) was used as the reference control is organism.
The microdilution plates used were a single lot of RPMI 1640 basal medium (JRH bioScience Inc. Lenexa, Kans., USA) with L-glutamine and without sodium bicarbonate, buffered to pH 7.0, at 25° C., with 0.165 M (MOPS) morpholinepropanesulfonic acid (Sigma).
Powdered drugs were dissolved in 100% dimethyl sulfoxide (DMSO), at concentrations 100 times higher than the final test concentration. All compounds were prepared in 100% (DMSO). For ITRA and TRB, two-fold drug dilutions were prepared in 100% DMSO at 100 times the final concentration, followed by further dilution 1:50 in RPMI medium, to yield 2× the final strength required for the test.
Fungal cultures were subcultured onto Potato Dextrose Agar and grown at 28° C. for 7-10 days. Fungal suspensions were covered with 5 ml of distilled water, and then colonies were scraped off with cotton tipped swabs. The resulting mixture of conidia and hyphae elements was withdrawn, transferred to a sterile tube and then vortexed with glass beads. After the particles settled, the upper homogeneous suspension was collected and its density adjusted by a densitometer to a 0.5 McFarland standard at the wavelength of 530 nm (80-85% transmittance). These stock suspensions were then diluted 1:50 with RPMI medium to obtain final working inoculum concentration ranging from 0.3×10^4 to 9×10^4 CFU/ml. Inoculum quantification was performed by plating 100 μl of the 1:1000 dilution of the adjusted inoculum on SDA plates, incubated at 28° C., and after 7 days of incubation, the colonies were counted.
Testing was based on NCCLS M38-P document for testing filamentous moulds. Testing was carried out in sterile 96-well flat bottomed microtitre plate. Columns 1 and 3 to 12 were filled with 100 μl of RPMI medium, leaving column 2 unfilled. Columns 1, 2 and 3 were filled with 100 μl of 2× drug concentration. Serial dilutions were then made by transferring 100 μl from column 3 to each column up to column 11, and 100 μl from column 11 was discarded. Column 12 served as drug free growth control. Finally, 100 μl of inoculum suspension was added to all wells except column 1, which acted as sterility control (Columns 1 and 12 served as sterility and growth control respectively). Plates were incubated at 28° C. for 7 days, and read at 3 days and 7 days of incubation. All testing was performed in duplicate, on three separate occasions.
Growth in microtitre trays were read by visual inspection by using an illuminated-reversed mirror. Growth in each well was compared with the “growth control” drug free well. The MIC end point for all the drugs was chosen to be the first well with 100% growth inhibition (i.e. the lowest drug concentration inhibiting growth).

Row | Compound | Lyso assay (% inhibition) LPL ([1]; 0.25 μM) [%] | Lyso assay (% inhibition) LPTA ([1]; 0.25 μM) [%] | % Inhibition LPL, Secretory Enzyme ([1]; 0.25 μM) [%] | % Inhibition LPTA, Secretory Enzyme ([1]; 0.25 μM) [%] | Lyso assay (% inhibition) LPL ([1]; 2.5 μM) [%] | Lyso assay (% inhibition) LPTA ([1]; 2.5 μM) [%] | % Inhibition LPL, Secretory Enzyme ([1]; 2.5 μM) [%] | % Inhibition LPTA, Secretory Enzyme ([1]; 2.5 μM) [%] | Lyso assay (% inhibition) LPL ([1]; 25 μM) [%] | Lyso assay (% inhibition) LPTA ([1]; 25 μM) [%] | % Inhibition LPL, Secretory Enzyme ([1]; 25 μM) [%] | % Inhibition LPTA, Secretory Enzyme ([1]; 25 μM) [%] | Lyso assay (% inhibition) LPL ([1]; 250 μM) [%] | Lyso assay (% inhibition) LPTA ([1]; 250 μM) [%] | % Inhibition LPL, Secretory Enzyme ([1]; 250 μM) | % Inhibition LPTA, Secretory Enzyme ([1]; 250 μM) | MIC Range, T. mentagrophyte [2] [µg/mL] | MIC ([2]; read-out: MIC GM, T. mentagrophyte) [µg/mL] | MIC ([2]; read-out: MIC Mean, T. mentagrophyte) [µg/mL]
1 | CCCC[P+](CCCC)(CCCC)CCCCCCCCCCCC[P+](CCCC)(CCCC)CCCC [Compound 1, 1,12-bis(tributylphosphonium)dodecane dibromide] | 0 | 0 | 0 | 0 | 0 | 0 | 0 | 0 | 0 | 0 | 0 | 0 | 6 | 4 | 6.3* % | 3.7* % | – | – | –
2 | CCCC[N+](CCCC)(CCCC)CCCCCCCCCCCC[N+](CCCC)(CCCC)CCCC [Compound 3, 1,12-bis(tributylammonium)do-decane dibromide] | – | – | – | – | – | – | – | – | – | – | – | – | – | – | – | – | 3.8 | 3.8 | 3.8
